The record followed here is ChEMBL document CHEMBL3507680, “University of Dundee, Gates Library screen for HepG2 cell viability”.

A short description of the data set: Human HepG2 cell viability assay in 384 well format. Type of data set: toxicity, cell-based. On the set-up: dose 125 nL, time 70.5 hour; concentration not given beside the values. As to conditions: HepG2 cells, read-out: Inhibition.

For the compound `O=C(c1cccs1)N1CC(C(=O)N2CCCC2)C2(CCOCC2)C1` (centres undefined), the cytotoxicity at 70.5 h turned out to be 0.22%.

Take `O=C(Nc1ccccc1)C1CN(C(=O)c2cccs2)CC12CCOCC2` (centres undefined): the cytotoxicity at 70.5 h was -0.505%.

Consider `CC(C)NC(=O)C1CN(C(=O)c2cccs2)CC12CCOCC2` (centres undefined), for which the cytotoxicity at 70.5 h is -1.8%.

Regarding `COCCN1CCO[C@H]2[C@H](OCc3cccc(C)n3)CC[C@@H]21`, the cytotoxicity at 70.5 h is -2.63%.

As to `Cc1ccc(CN2CC[C@H]3OCC[C@@H](C(=O)NCC4CC4)[C@@H]3C2)o1`, the cytotoxicity at 70.5 h is -5.45%.

Take `CC(C)CN1CCC2(CC(C(=O)NCc3cccnc3)=NO2)C1` (centres undefined): the cytotoxicity at 70.5 h was -5.8%.

Take `COC[C@]12COC[C@H]1CN(Cc1cccnc1OC)C2`: the cytotoxicity at 70.5 h was -19%.

Take `Cc1nc(N2CCCC2)nc2c1CCN(C(=O)CC1CC1)CC2`: the cytotoxicity at 70.5 h was -8.4%.

`COC[C@H]1CCC[C@]12CN(C(=O)NCc1ccccc1)CCO2`: the cytotoxicity at 70.5 h was -16.8%.

Regarding `O=C(NCC1CC1)C1CN(C(=O)c2cccc(Cl)c2)CC12CCOCC2` (centres undefined), the cytotoxicity at 70.5 h is 38.6%.

`CCC1=N[C@@]2(CC[C@@H]3CN(S(=O)(=O)CC(C)C)C[C@@H]32)C(=O)N1C`: the cytotoxicity at 70.5 h is -1.14%.

`Cc1csc([C@@H]2C[C@@H]3CCN(C(=O)c4ccnnc4)C[C@H]3O2)n1`: the cytotoxicity at 70.5 h was -3.66%.

As to `Cn1ccnc1CN1CCC2(CC1)CN(CC1CC1)C(=O)CO2`, the cytotoxicity at 70.5 h was 12.3%.

Turning to `CC(C)N(C)Cc1nnc2n1CCCN(C(=O)c1ccco1)C2`, the cytotoxicity at 70.5 h is -6.16%.

For `O=C(C1CC=CC1)N1C[C@@H]2[C@@H](C1)OCC(=O)N2Cc1cccnc1`, the cytotoxicity at 70.5 h is 0.567%.

For the compound `Cc1ccoc1C(=O)N1CC[C@H]2OCC[C@@]2(COCc2ccncc2)C1`, the cytotoxicity at 70.5 h was -5.41%.

`O=C(NCC1CC1)C1CN(C(=O)c2cccnc2)CC12CCOCC2` (centres undefined): the cytotoxicity at 70.5 h is -7.11%.

`COCC1CN(C(=O)C2=CCCCC2)Cc2cnn(CC3CC3)c21` (centres undefined): the cytotoxicity at 70.5 h was -2.03%.

Consider `CS(=O)(=O)NC[C@]12COC[C@H]1CN(C(=O)c1ccccc1)C2`, for which the cytotoxicity at 70.5 h was -3.75%.

In the case of `CS(=O)(=O)NC[C@]12COC[C@H]1CN(C(=O)Cc1ccccc1F)C2`, the cytotoxicity at 70.5 h was -1.03%.

Regarding `Cc1csc([C@@H]2C[C@@H]3CCN(C(=O)c4cc(C)on4)C[C@H]3O2)n1`, the cytotoxicity at 70.5 h is -1.08%.

As to `CC(C)NC(=O)N1CCN(S(=O)(=O)C2CC2)CC2(CNC(=O)C2)C1` (centres undefined), the cytotoxicity at 70.5 h came out at 1.9%.

Regarding `Cn1nnc2c1C(COCC1CC1)CN(C(=O)Cc1ccsc1)C2` (centres undefined), the cytotoxicity at 70.5 h was -0.74%.

With `CC(C)NC(=O)N1CCN(S(=O)(=O)C2CC2)CC2(CC(=O)N(C)C2)C1` (centres undefined), the cytotoxicity at 70.5 h was found to be 0.827%.

As for `O=C1CCC2(CCCN(c3ncc(F)cn3)CC2)N1CC1CC1` (centres undefined), the cytotoxicity at 70.5 h is -1.42%.

On to `COCC1CC2(CCN(C(=O)c3occc3C)CC2)CO1` (centres undefined), for which the cytotoxicity at 70.5 h is -6.11%.

For `O=C(c1ccsc1)N1CC(C(=O)N2CCOCC2)C2(CCOCC2)C1` (centres undefined), the cytotoxicity at 70.5 h was -1.97%.

In the case of `O=C(CCc1ccccc1)N1CCn2cc(CN3CCCC3)nc2C1`, the cytotoxicity at 70.5 h is -11.7%.

For the compound `Cc1cc(C(=O)N2C[C@@H]3COC[C@]3(COCc3cccnc3)C2)no1`, the cytotoxicity at 70.5 h was -12%.

On to `COc1ccc2c(c1)C1(CCN(Cc3ccoc3)CC1)N(C)CC2`, for which the cytotoxicity at 70.5 h was -5.64%.

Regarding `Cn1nc(C(=O)NN2CCOCC2)c(Cl)c1C(F)(F)F`, the cytotoxicity at 70.5 h is -3.83%.

Consider `CC(=O)N1[C@H](Cn2cncn2)C[C@@H]2CN(CC3CC3)CC[C@@H]21`, for which the cytotoxicity at 70.5 h is -1.99%.

For `CCN1CCC2(CCN(Cc3nccs3)CC2)C1=O`, the cytotoxicity at 70.5 h was 0.565%.

With `O=C([C@@H]1COC[C@H]2CN(C3CCCC3)C[C@H]21)N1CCCO1`, the cytotoxicity at 70.5 h is -1.63%.

For `CC(=O)N1CCC2(CCN(Cc3cccc(F)c3)CC2)CC1`, the cytotoxicity at 70.5 h is -2.12%.

`CCC(=O)N1CCC2(CCN(Cc3cccc(F)c3)CC2)CC1`: the cytotoxicity at 70.5 h was -1.29%.

With `COCCNC(=O)[C@H]1CC[C@@H]2[C@@H](CCN2c2ncc(F)cn2)O1`, the cytotoxicity at 70.5 h is -1.33%.

On to `O=C(c1ccco1)N1CCCC2(CN(Cc3ccc(F)cc3)CCO2)C1` (centres undefined), for which the cytotoxicity at 70.5 h is -1.46%.

On to `Cc1ccc(CN2CC[C@H]3OCC[C@@H](C(=O)NCC4CC4)[C@@H]3C2)s1`, for which the cytotoxicity at 70.5 h was -6.5%.

As to `CCS(=O)(=O)N1CCOC2(CCCN(c3ccccn3)C2)C1` (centres undefined), the cytotoxicity at 70.5 h was -2.6%.

Turning to `CNC(=O)c1cc2c(nc1NCC1CC1)CCN(c1ccncn1)CC2`, the cytotoxicity at 70.5 h was -24.6%.

Consider `CCS(=O)(=O)N1C[C@H]2CCC[C@@]2(COc2ccccn2)C1`, for which the cytotoxicity at 70.5 h was -21.9%.

`O=C(c1cnccn1)N1CCOCC2(CCN(C3CCOCC3)C2)C1` (centres undefined): the cytotoxicity at 70.5 h is -15.5%.

On to `COc1ccccc1CN1CC[C@H]2C[C@@H](C(=O)N3CCCC3)O[C@H]2C1`, for which the cytotoxicity at 70.5 h was -7.49%.

As for `O=C(c1ccccn1)N1CCn2cnc(COCC3CC3)c2C1`, the cytotoxicity at 70.5 h is -1.29%.

In the case of `O=C([C@H]1CCCO1)N1CC[C@H](O)[C@@H]1Cc1ccncc1`, the cytotoxicity at 70.5 h is 1.55%.

For `Cc1nc(CN2CC3(CCN(c4ncc(F)cn4)C3)CC2=O)cs1` (centres undefined), the cytotoxicity at 70.5 h is -0.115%.

Regarding `O=C(NC1COC2(CCN(Cc3ccccn3)CC2)C1)c1ccccn1` (centres undefined), the cytotoxicity at 70.5 h amounted to 3.59%.

For `O=C(c1cccnc1)N1CCCC2(CCN(c3ccsc3)C2=O)C1` (centres undefined), the cytotoxicity at 70.5 h turned out to be 13.9%.

Regarding `CCS(=O)(=O)N1CCC2(CC1)CC(Oc1ccccn1)CO2` (centres undefined), the cytotoxicity at 70.5 h is -18.2%.

With `Cc1noc([C@@H]2C[C@H]3CN(Cc4cc(C)on4)C[C@H]3O2)n1`, the cytotoxicity at 70.5 h is -4.39%.

Regarding `CN(C)[C@@H]1CCN(c2ncccn2)[C@H]1Cc1cccnc1`, the cytotoxicity at 70.5 h is -3.76%.

Take `CN(C)[C@@H]1CCN(c2ncc(F)cn2)[C@H]1Cc1ccncc1`: the cytotoxicity at 70.5 h is -5.64%.

For the compound `Cc1cccc(CO[C@@H]2CC[C@H]3[C@H]2OCCN3Cc2cc(C)on2)n1`, the cytotoxicity at 70.5 h is -0.405%.

Consider `O=C1CC[C@H]2[C@H](CCN2c2ncc(F)cn2)N1c1cccnc1`, for which the cytotoxicity at 70.5 h was -6.96%.

Consider `Cc1ccc(C(=O)N2C[C@H]3CCCC(OCc4cccnc4)[C@H]3C2)cn1` (some centres undefined), for which the cytotoxicity at 70.5 h is -1.36%.

As to `CO[C@@H]1CCN(Cc2cnn(C)c2)[C@@H]2CN(Cc3ccco3)C[C@@H]21`, the cytotoxicity at 70.5 h is -13.3%.

As for `c1ccc(CO[C@H]2CO[C@@]3(CCN(Cc4ccoc4)C3)C2)nc1`, the cytotoxicity at 70.5 h was -18.7%.

As to `COc1ccc(CN2CCn3cc(CN4CCCCC4)nc3C2)cc1`, the cytotoxicity at 70.5 h turned out to be 29.5%.

On to `Cc1ccc(CN2CCn3cc(CN(C)Cc4ccco4)nc3C2)o1`, for which the cytotoxicity at 70.5 h was 0.0869%.

Regarding `O=C1COC2(COCCN(Cc3cccnc3)C2)CN1c1ccoc1` (centres undefined), the cytotoxicity at 70.5 h is -9.07%.

Turning to `COCCN1C[C@@H]2CN(Cc3ccsc3)CCC[C@]2(C(=O)O)C1`, the cytotoxicity at 70.5 h is -12.1%.

Take `CCN(CC)CCN1CCO[C@H]2[C@@H](OCc3ccncc3)CC[C@@H]21`: the cytotoxicity at 70.5 h was -1.93%.

As for `CCOC(=O)[C@]12CCCN(Cc3ccco3)C[C@H]1CN(CCN(C)C)C2`, the cytotoxicity at 70.5 h is -8.65%.
